Laboratory results reported in patent publication US7091351B2, “Vanadium compounds for treating cancer” (Parker Hughes Institute, priority 1998, dated 2006).

What was measured:
U373 glioblastoma cells = assay: MTT cytotoxicity assay of vanadocenes, U373 cells; assay type: cell-based, human; settings: 24 h
Procedure: Human testicular cancer cell lines, Tera-2 (embryonal carcinoma) and Ntera-2 (pluripotent embryonal carcinoma) were obtained from the American Type Culture Collection (ATCC) (Rockeville, Md.) and propagated in T-25, T-75, or T-150 cm^2 tissue culture flasks (Corning Corp., Corning, N.Y.) in McCoy's 5A medium and Dulbecco's modified Eagle's medium respectively. Both media were supplemented with 10% fetal calf serum (FCS), 4 mM glutamine, 100 U/ml penicillin G, and […] streptomycin sulfate. All tissue culture reagents were obtained from Life Technologies Inc. (GIBCO-BRL), Gaithersburg, Md. Cell lines were cultivated for a minimum of two passages after thawing prior to experimentation. Other cell lines that were used in this study were the human B-lineage acute lymphoblastic leukemia (ALL) cell line NALM-6. Uckun, F. M., Evans, W. E., Forsyth, C. J., Waddick, K. G., Tuel-Ahlgren, L., Chelstrom, L. M., Burkhardt, A., Bolen, J., Myers, D. E. Biotherapy of B-cell precursor leukemia by targeting genistein to CD19-associated tyrosine kinase. Science (Washington DC) 267:886–91, 1995; T-lineage ALL cell line MOLT-3, Waurzyniak, B., Shneider, E. A., Tumer, N., Yanishevski, Y., Gunther, R., Chelstrom, L., Wendorf, H., Myers, D. E., Irvin, J. D., Messinger, Y., Ek, O., Zeren, T., Chandan-Langlie, M., Evans, W. E., Uckun, F. M. In vivo toxicity, pharmacokinetics, and antileukemic activity of TXU (anti-CD7)-pokeweed antiviral protein immunotoxin. Clinical Cancer Research 3:881–890, 1997; AML cell line HL-60, Perentesis, J. P., Waddick, K. G., Bendel, A. E., Shao, Y., Warman, B. E., Chandan-Langlie, M., and Uckun, F. M. Induction of apoptosis in multi-drug resistant andradiation-resistant acute myeloid leukemia cells by a recombinant fusion toxin directed against the granulocyte macrophage colony stimulating factor receptor. Clin. Cancer Res. 3:347–355, 1997; breast cancer cell lines MDA-MB-231 and BT-20, Uckun, F. M., Narla, R. K., Jun, X., Zeren, T., Venkatachalam, T., Waddick, K. G., Rostostev, A., Myers, D. E. Cytotoxic activity of EGF-genstein against breast cancer cells. Clin. Cancer Res. 4:901–912, 1998; glioblastoma cell lines U87 and U373, Narla, R. K., Liu, X., Myers, D. E., and Uckun, F. M. 4-(3′-Bromo-4′hydroxylphenyl)-amino-6,7-dimethoxyquinazoline (WHI-P154): A novel quinazoline derivative with potent cytotoxic activity against human glioblastoma cells. Clin. Cancer Res. 4:1405–1414, 1998.
MTT (3-[4,5-dimethyl thiazol-2-yl]-2,5-diphenyltetrazolium bromide)-based colorimetric assays were used for evaluation of the cytotoxicity of vanadocene compounds. Mosmann, T. Rapid colorimetric assay for cellular growth and survival: application to proliferation and cytotoxicity assays. J. Immunol. Methods, 65: 55–63, 1983. Briefly, cells were harvested with 0.125% (w/v) trypsin-0.02% EDTA (GIBCO-BRL) from exponential-phase maintenance cultures and centrifuged (300 g×5 min). After suspension and counting, cells were dispensed within triplicate 96-well tissue culture plates in 100 μl volumes. After 24 h incubation, the culture medium was discarded and replaced with 100 μl of fresh medium containing serial two-fold dilutions of drugs in medium to yield 1.9 μM to 250 μM. All compounds were reconstituted in DMSO to a concentration of 100 mM, and the stock solution was made fresh for each experiment. Control wells consisted of medium containing 0.25% of DMSO alone were used for solvent control. Culture plates were then incubated for 24 h before adding 10 μl of MTT solution (5 mg/ml in PBS) to each well. Wells containing only medium and MTT were used as controls for each plate. The tetrazolium/formazan reaction was allowed to proceed for 4 h at 37° C., and then 100 μl of the solubilization buffer (10% sodium dodecyl sulfate in 0.1% HCl) were added to all wells and mixed thoroughly to dissolve the dark blue formazan crystals. […]

[1] = system: HS445 Hodgkin's lymphoma cells; assay: MTT cytotoxicity assay of oxovanadium(IV) compounds, HS445; assay type: cell-based, human; settings: 48 hr
Procedure: The cytotoxicity of oxovanadium (W) complexes listed in Table 6 were tested against 9 different human cancer cell lines was performed using the MTT (3-[4,5-dimethylthiazol-2-yl]-2,5-diphenyl tetrazolium bromide) assay (Boehringer Mannheim Corp., Indianapolis, Ind.) as described previously (20). Briefly, exponentially growing tumor cells were seeded into a 96-well plate at a density of 4×10^4cells/well and incubated with medium containing the oxovanadium(IV) compounds concentrations ranging from 0.1 to 250 μM for 48 hours at 37° C. in a humidified 5% CO2 atmosphere. Triplicate wells were used for each treatment. To each well, 10 μl of MTT (0.5 mg/ml final concentration) was added and the plates were incubated at 37° C. for 4 hours to allow MTT to form formazan crystals by reacting with metabolically active cells . The formazan crystals were solubilized overnight at 37° C. in a solution containing 10% SDS in 0.01 M HCl. The absorbence of each well was measured in a microplate reader (Labsystems) at 540 nm and a reference wavelength of 690 nm. To translate the OD540 values into the number of live cells in each well, the OD540 values were compared to those on standard OD540—versus—cell number curves generated for each cell line. The percent survival was calculated using the formula: % survival=Live cell number[test]/Live cell number [control]×100. The IC50 values were calculated by non-linear regression analysis using an Graphpad Prism software version 2.0 (Graphpad Software, Inc., San Diego, Calif.).

[Cl-].[Cl-].[V+4].c1cc[cH-]c1.c1cc[cH-]c1 [VDC, VCp2Cl2]
IC50 (U373 glioblastoma cells): 42 µM

bis(4,7-dimethyl-1,10-phenanthroline)sulfatooxovanadium(IV) [Compound 29]
IC50 [1]: 0.5 ± 0.08 µM
